Results on three compounds are retold here after publication PMC5125025 (Science (New York, N.Y.), 2015).

The test system of one experiment is RsTSPO WT. Conditions: cited from earlier work.
The target of a further experiment is RsTSPO A139T mutant (Cereibacter sphaeroides, UniProt Q9RFC8, A139T). Put plainly: Ligand binding affinity of purified RsTSPO A139T mutant. Also on record: species or system Rhodobacter sphaeroides.
Chain of RsTSPO A139T mutant (Q9RFC8 whole entry A139T): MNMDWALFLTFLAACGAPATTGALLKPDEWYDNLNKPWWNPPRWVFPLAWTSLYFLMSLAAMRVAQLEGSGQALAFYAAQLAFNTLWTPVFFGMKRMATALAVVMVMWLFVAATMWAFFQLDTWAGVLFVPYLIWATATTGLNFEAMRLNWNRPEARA

Turning to `CCC(C)N(C)C(=O)c1cc2ccccc2c(-c2ccccc2Cl)n1` (stereo not drawn) [PK11195], the “affinities of RsTSPO for ligands (range in words)” value (“affinities of RsTSPO for ligands” below) in the experiment with RsTSPO WT is “high nanomolar to micromolar range”. Moreover, the Kd (commonly the equilibrium constant for the complex coming apart) at RsTSPO A139T mutant stood at 42 ± 4 µM.
For the compound `C=CC1=C(C)c2cc3[nH]c(cc4nc(cc5[nH]c(cc1n2)c(C)c5CCC(=O)O)C(CCC(=O)O)=C4C)c(C)c3C=C` [PpIX, protoporphyrin IX], the “affinities of RsTSPO for ligands” value in the experiment with RsTSPO WT is recorded as “high nanomolar to micromolar range”. Also, the Kd at RsTSPO A139T mutant worked out at 1.9 ± 0.3 µM.
Take `CC(C)CCC[C@@H](C)[C@H]1CC[C@H]2[C@@H]3CC=C4C[C@@H](O)CC[C@]4(C)[C@H]3CC[C@]12C` [cholesterol]: the “affinities of RsTSPO for ligands” value in the experiment with RsTSPO WT is on record as “high nanomolar to micromolar range”. The compound further yielded a Kd at RsTSPO A139T mutant of over 300 µM.
